These results are taken from patent publication US9758524B2, “4-imidazopyridazin-1-yl-benzamides as Btk inhibitors” (Merck Sharp & Dohme B.V., priority 2011, dated 2017).

One assay concerns the target Btk enzyme (His-Btk) (Homo sapiens (Human), UniProt Q06187). Nature of the assay: Btk enzyme activity (IMAP fluorescence polarization assay). To be noted: read-out: EC50 Btk activity values; IMAP, 60 min pre-incubation, 5 μM ATP; bin bound in nM.
The target of the next assay is FynT enzyme (Homo sapiens (Human), UniProt P06241). The assay can be described thus: FynT enzyme activity (IMAP fluorescence polarization assay). Format: biochemical. To be noted: 60 min pre-incubation, 0.2 μM ATP. The essentials: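 Human FynT pre-incubated with compounds 60 min at room temperature, then reacted 2 h at room temperature with fluorescein-labelled p34cdc2 peptide (100 nM final). Stopped with IMAP binding solution; fluorescence polarization read after 60 min. Activity as % of ±ATP control difference; EC50 by curve fitting.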
Chain of FynT enzyme (P06241 other isoform, or with tags, fused parts or gaps): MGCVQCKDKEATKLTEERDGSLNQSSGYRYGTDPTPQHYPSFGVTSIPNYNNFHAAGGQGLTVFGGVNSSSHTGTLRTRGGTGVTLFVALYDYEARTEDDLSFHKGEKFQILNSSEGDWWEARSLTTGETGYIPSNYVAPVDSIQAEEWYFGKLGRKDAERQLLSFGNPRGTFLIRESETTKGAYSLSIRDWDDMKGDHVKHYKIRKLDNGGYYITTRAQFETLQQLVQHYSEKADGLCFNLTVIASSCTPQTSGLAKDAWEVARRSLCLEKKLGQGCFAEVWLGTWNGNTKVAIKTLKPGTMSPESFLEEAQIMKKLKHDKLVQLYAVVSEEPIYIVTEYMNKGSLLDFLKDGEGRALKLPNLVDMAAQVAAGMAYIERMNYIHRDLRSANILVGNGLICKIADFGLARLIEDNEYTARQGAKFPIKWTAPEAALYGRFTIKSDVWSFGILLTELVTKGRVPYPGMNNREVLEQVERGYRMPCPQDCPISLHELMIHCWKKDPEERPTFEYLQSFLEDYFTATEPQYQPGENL
(Polarisation of emitted light reports the rotation of a fluorescent probe.)

Another assay concerns the target Src enzyme (Homo sapiens (Human), UniProt P12931). The assay can be described thus: Src enzyme activity (IMAP fluorescence polarization assay). The settings on record: read-out: EC50 Src activity values; IMAP, 60 min pre-incubation, 4 μM ATP.
The next assay addresses Lck enzyme (Homo sapiens (Human), UniProt P06239). Nature of the assay: Lck enzyme activity (IMAP fluorescence polarization assay). The settings on record: for EC50: read-out: EC50 Lck activity values; for EC50 / EC50 Lck activity values: IMAP, 60 min pre-incubation, 6 μM ATP, bin bound in μM.
The target in the next assay is Lyn enzyme (Homo sapiens (Human), UniProt P07948). Nature of the assay: Lyn enzyme activity (IMAP fluorescence polarization assay).
Chain of Lyn enzyme (P07948 whole entry): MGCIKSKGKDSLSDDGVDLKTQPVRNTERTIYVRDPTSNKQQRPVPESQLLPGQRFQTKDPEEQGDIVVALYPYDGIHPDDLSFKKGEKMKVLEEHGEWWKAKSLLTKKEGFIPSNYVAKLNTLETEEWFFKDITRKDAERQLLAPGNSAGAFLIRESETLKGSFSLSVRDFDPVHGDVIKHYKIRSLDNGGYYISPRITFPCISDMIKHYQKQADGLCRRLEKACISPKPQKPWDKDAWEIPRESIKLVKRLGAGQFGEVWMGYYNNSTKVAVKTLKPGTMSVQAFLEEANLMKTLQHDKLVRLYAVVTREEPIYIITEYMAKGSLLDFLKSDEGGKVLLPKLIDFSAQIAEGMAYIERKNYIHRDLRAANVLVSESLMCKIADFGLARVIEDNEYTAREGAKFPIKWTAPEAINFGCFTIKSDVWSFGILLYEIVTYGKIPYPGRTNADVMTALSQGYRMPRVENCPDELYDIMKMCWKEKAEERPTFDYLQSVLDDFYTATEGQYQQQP
Where [1] appears, read: read-out: EC50 Lyn activity values, 60 min pre-incubation, 2 μM ATP, bin bound in μM.

Each structure is given as a SMILES string. pEC50: −log10 of the molar value. Like-named read-outs stand apart in the source and are kept apart here.

Chain of Src enzyme (P12931 whole entry, looked up): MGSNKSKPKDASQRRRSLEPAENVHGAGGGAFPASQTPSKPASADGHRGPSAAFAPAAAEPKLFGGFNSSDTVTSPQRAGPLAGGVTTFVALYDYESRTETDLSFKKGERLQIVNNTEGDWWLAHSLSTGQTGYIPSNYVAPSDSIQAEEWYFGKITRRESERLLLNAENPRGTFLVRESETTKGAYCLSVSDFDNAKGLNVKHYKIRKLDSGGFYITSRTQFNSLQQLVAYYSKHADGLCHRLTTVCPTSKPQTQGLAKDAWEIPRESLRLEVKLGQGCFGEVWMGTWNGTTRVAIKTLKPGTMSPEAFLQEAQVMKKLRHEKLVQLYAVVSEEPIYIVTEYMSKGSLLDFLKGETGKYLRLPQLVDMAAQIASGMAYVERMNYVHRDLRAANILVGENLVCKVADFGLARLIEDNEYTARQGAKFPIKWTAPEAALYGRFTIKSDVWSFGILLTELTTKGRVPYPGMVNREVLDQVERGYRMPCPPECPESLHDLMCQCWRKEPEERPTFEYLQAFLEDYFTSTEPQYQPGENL
Chain of Btk enzyme (His-Btk) (Q06187 whole entry): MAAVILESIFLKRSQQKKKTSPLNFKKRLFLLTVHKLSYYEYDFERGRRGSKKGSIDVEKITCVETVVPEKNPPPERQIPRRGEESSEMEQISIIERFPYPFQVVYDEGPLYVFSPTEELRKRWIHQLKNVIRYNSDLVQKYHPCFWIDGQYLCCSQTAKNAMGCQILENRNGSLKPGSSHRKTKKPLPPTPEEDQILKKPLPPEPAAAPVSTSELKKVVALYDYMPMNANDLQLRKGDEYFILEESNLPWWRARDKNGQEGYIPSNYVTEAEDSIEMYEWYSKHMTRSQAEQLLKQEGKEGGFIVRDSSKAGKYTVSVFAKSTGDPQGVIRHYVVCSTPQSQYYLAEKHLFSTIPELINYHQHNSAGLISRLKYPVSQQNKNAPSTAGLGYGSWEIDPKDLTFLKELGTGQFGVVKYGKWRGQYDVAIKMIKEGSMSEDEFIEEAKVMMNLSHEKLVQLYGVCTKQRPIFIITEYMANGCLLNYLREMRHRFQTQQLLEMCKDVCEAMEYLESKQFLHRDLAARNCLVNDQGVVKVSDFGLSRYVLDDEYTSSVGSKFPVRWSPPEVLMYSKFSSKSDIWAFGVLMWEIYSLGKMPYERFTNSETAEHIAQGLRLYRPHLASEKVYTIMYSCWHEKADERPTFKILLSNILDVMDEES
Chain of Lck enzyme (P06239 whole entry): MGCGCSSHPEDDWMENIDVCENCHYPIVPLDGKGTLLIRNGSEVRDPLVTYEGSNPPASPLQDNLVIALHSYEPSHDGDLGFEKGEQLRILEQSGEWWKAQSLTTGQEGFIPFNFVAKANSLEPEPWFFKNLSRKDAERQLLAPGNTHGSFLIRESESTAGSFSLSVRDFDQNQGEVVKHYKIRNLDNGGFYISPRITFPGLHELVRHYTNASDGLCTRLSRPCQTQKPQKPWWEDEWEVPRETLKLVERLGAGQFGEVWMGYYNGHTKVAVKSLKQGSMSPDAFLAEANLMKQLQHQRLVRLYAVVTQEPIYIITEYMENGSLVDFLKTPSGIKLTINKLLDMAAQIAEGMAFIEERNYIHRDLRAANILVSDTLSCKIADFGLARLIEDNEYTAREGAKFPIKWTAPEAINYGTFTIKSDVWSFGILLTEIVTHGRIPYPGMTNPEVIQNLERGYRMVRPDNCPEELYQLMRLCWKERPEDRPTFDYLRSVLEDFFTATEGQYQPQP

Regarding `CC#CC(=O)N1CCC[C@H]1c1nc(-c2ccc(C(=O)Nc3cc(C#N)ccn3)cc2)c2c(N)nccn12` [Example 130, (S)-4-(8-amino-3-(1-but-2-ynoylpyrrolidin-2-yl)imidazo[1,5-a]pyrazin-1-yl)-N-(4-cyanopyridin-2-yl)benzamide], the EC50 (usually the concentration that produces a half-maximal response) on Btk enzyme (His-Btk) is less than 10 nM; at Lck enzyme it was no less than 1 µM; on Lyn enzyme (setting [1]), no less than 1 µM. Moreover, the pEC50 at FynT enzyme and at Src enzyme was no more than 6.00 each time.

Consider `CC#CC(=O)N1CCC[C@H]1c1nc(-c2ccc(C(=O)Nc3cc(CC)ccn3)cc2)c2c(N)nccn12` [Example 131, (S)-4-(8-amino-3-(1-but-2-ynoylpyrrolidin-2-yl)imidazo[1,5-a]pyrazin-1-yl)-N-(4-ethylpyridin-2-yl)benzamide], for which the EC50 was less than 10 nM on Btk enzyme (His-Btk), no less than 1 µM at Lck enzyme and no less than 1 µM on Lyn enzyme (setting [1]). Further, the pEC50 at FynT enzyme and at Src enzyme was no more than 6.00 throughout.

As for `CC#CC(=O)N1CCC[C@H]1c1nc(-c2ccc(C(=O)Nc3cc(-c4ccccc4)ccn3)cc2)c2c(N)nccn12` [Example 132, (S)-4-(8-amino-3-(1-but-2-ynoylpyrrolidin-2-yl)imidazo[1,5-a]pyrazin-1-yl)-N-(4-phenylpyridin-2-yl)benzamide], the values for the EC50 at Btk enzyme (His-Btk) and at Lyn enzyme (setting [1]) were less than 10 nM and no less than 1 µM, respectively. Besides, the negative-log EC50 (pEC50) (commonly the negative decadic logarithm of the EC50, by convention in mol/L) on FynT enzyme is no more than 6.00; at Src enzyme, no more than 6.00; on Lck enzyme it was 6.00 to 7.00. Besides, the “EC50 Lck activity values” at Lck enzyme is less than 1 µM.

For the compound `C=CC(=O)N1CCC[C@H]1c1nc(-c2ccc(C(=O)Nc3cc(-c4ccccc4)ccn3)cc2)c2c(N)nccn12` [Example 133, (S)-4-(3-(1-acryloylpyrrolidin-2-yl)-8-aminoimidazo[1,5-a]pyrazin-1-yl)-N-(4-phenylpyridin-2-yl)benzamide], the concentration giving a half-maximal response (EC50) was less than 10 nM at Btk enzyme (His-Btk) and 0.1 to 1 µM at Lyn enzyme (EC50 Lyn activity values, 60 min pre-incubation, 2 μM ATP, bin bound in nM). Also, the negative-log EC50 (pEC50) on FynT enzyme was no more than 6.00; at Src enzyme, no more than 6.00; on Lck enzyme it was 6.00 to 7.00. Besides, the “EC50 Lck activity values” at Lck enzyme is less than 1 µM. In addition, the “EC50 Lyn activity values” at Lyn enzyme (60 min pre-incubation, 2 μM ATP, bin bound in μM) was less than 1 µM.
